Assay [1] addresses D816V Kit (Homo sapiens (Human), UniProt P10721, D816V). Briefly: Kit D816V assay at Km (Caliper electrophoretic mobility shift). In kind it is biochemical. The settings on record: for IC50: D816V Kit 0.5 nM, 15 uM ATP (Km), 1 uM Srctide, 25 C, 90 minutes, read-out: INH-KITD816V ENZ-KM IC50 (nM) (Num); for times more potent against the D816V mutant than against the wild-type Kit: D816V Kit versus wild-type Kit, enzyme assays at Km. The procedure: (§1) In order to assess the activity of chemical compounds against the relevant kinase of interest, the Caliper LifeSciences electrophoretic mobility shift technology platform is used. Fluorescently labeled substrate peptide is incubated in the presence of kinase and ATP so that a […] proportion of the peptide is phosphorylated. At the end of the reaction, the mix of phosphorylated (product) and non-phosphorylated (substrate) peptides are passed through the microfluidic system of the Caliper EZ Reader 2, under an applied potential difference. The presence of the phosphate group on the product peptide provides a difference in mass and charge between those of the substrate peptide, resulting in a separation of the substrate and product pools in the sample. As the pools pass a LEDS within the instrument, these pools are detected and resolved as separate peaks. The ratio between these peaks therefore reflects the activity of the chemical matter at that concentration in that well, under those conditions.
(§2) The reaction was stopped by the addition of 70 ul of Stop buffer (100 mM HEPES pH 7.5, 0.015% Brij 35, 35 mM EDTA and 0.2% of Coating Reagent 3 (Caliper Lifesciences)). The plate was then read on a Caliper EZReader 2 (protocol settings: −1.9 psi, upstream voltage −700, downstream voltage −3000, post sample sip 35 s).

In assay [2] the target is wild type Kit (Homo sapiens (Human), UniProt P10721). Briefly: Kit wild type assay at Km (Caliper electrophoretic mobility shift). In kind it is biochemical. The conditions noted are these: wild type Kit 2 nM, 400 uM ATP (Km), 1 uM Srctide, 25 C, 90 minutes; read-out: INH-KITWT ENZ-KM IC50 (nM) (Num). The procedure:
as §1, §2

For assay [3], the system named is HMC1.2 cells. Briefly: HMC1.2 Proliferation Assay (CellTiter-Glo). The settings on record: 72 h, read-out: HMC1.2 Proliferation IC50. A general note: In ATP-based viability assays light output follows the ATP content of the culture.
Protocol: 1000 HMC1.2 cells were incubated in 22 ul culture media (IMDM, 10% calf serum with Iron) in each well of a 384-well plate overnight in a tissue culture incubator (5% CO2, 37° C.). […] After 3 days incubation in tissue culture incubator, 25 ul CellTiter-Glo (Promega) solution was added to each well for ATP/cell viability measurement.
In addition, these compounds were assayed for their ability to inhibit the dependence of these cells on Kit kinase activity by disrupting their growth and proliferation.
Assay [4] has as its target Kit D816V kinase activity (Kit autophosphorylation at tyrosine 719) (Homo sapiens (Human), UniProt P10721, D816V/V560G). Briefly: HMC1.2 Autophosphorylation Assay (AlphaLISA phospho-Y719 c-Kit). Background: Bead proximity is the source of the signal in Alpha formats.
Protocol: 10,000 HMC1.2 cells were incubated in 22 ul culture media (phenol-red free IMDM, no serum) in each well of a 384-well plate and serum starved overnight in a tissue culture incubator (5% CO2, 37° C.). […] After 90 minutes, 6 ul of 5× AlphaLISA Lysis Buffer (Perkin Elmer) supplemented with a protease and phosphatase inhibitor cocktail (Cell Signaling Technologies) was added to each well and shaken at 450 rpm for 15 minutes at 4° C. […] 10 ul of 100 ug/ml streptavidin donor beads (Perkin Elmer) were added to each well, blocked from light with aluminum adhesive and shaken at 300 rpm at room temperature for 2 hours. Fluorescence signal was obtained on Envision (Perkin Elmer) by AlphaScreen 384 well HTS protocol.

pIC50: −log10 of the molar value.

Sequence of wild type Kit (P10721 26-976): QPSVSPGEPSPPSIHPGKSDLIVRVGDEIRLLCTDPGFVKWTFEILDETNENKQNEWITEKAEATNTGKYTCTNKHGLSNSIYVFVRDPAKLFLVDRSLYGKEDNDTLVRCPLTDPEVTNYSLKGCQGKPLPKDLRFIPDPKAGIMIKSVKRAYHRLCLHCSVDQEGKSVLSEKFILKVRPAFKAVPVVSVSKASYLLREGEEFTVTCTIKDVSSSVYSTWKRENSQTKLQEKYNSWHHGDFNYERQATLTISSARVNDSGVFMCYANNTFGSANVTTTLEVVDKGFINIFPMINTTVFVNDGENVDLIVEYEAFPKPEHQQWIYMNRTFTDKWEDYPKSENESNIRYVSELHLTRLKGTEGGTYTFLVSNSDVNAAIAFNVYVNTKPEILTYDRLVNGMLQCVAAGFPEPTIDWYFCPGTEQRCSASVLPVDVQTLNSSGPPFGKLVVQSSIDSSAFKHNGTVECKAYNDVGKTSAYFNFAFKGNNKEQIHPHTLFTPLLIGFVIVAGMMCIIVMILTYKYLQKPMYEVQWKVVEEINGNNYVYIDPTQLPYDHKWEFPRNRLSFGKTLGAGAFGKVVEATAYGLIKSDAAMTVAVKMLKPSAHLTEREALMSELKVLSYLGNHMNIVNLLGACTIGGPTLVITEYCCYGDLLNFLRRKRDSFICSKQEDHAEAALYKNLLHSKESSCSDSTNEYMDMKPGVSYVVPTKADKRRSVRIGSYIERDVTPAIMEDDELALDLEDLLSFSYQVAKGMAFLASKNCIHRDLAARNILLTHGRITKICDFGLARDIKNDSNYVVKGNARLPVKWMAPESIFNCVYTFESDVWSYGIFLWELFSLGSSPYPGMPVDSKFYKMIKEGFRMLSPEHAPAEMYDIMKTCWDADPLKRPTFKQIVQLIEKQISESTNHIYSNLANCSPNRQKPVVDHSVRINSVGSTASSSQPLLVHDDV
Sequence of D816V Kit (P10721 26-976 D816V): as the sequence (P10721 26-976) above, with D791V counted along it
Sequence of Kit D816V kinase activity (Kit autophosphorylation at tyrosine 719) (P10721 26-976 V560G/D816V): as the sequence (P10721 26-976) above, with V535G, D791V counted along it

Take `c1ccc(Cc2cnc(N3CCN(c4ncnc5[nH]cnc45)CC3)nc2)cc1` [Compound 1]: the values for the concentration for half-maximal inhibition (IC50) in assay [1] and in assay [2] were 10 to 100 nM and > 1000 nM, respectively. Further, the “times more potent against the D816V mutant than against the wild-type Kit” value (shortened to “times more potent”) in assay [1] is on record as “at least 100 times”. The pIC50 is 5.00 to 6.00 in assay [3] and < 5.00 in assay [4].
With `COc1cc2ncnc(N3CCN(c4ncc(Cc5ccccc5)c(N)n4)CC3)c2cc1OCC1CCN(C)CC1` [Compound 125], the IC50 (in general, the midpoint of a concentration-inhibition curve) in assay [1] is < 1 nM; in assay [2], < 10 nM. The pIC50 in assay [3] was 6.00 to 7.00; in assay [4] it was > 8.00.
Turning to `COc1cc2ncnc(N3CCN(c4ncc(Cc5ccccc5)cn4)CC3)c2cc1OCC1CCNC(=O)C1` (stereo not shown) [Compound 109], the results for the 50% inhibitory concentration (IC50) in assay [1] and in assay [2] were < 1 nM and 11 to 100 nM, respectively. In addition, the results for the pIC50 in assay [3] and in assay [4] were 5.00 to 6.00 and 7.00 to 8.00, respectively.
For `COc1cc2ncnc(N3CCN(c4ncc(Cc5ccccc5)cn4)CC3)c2cc1OC1CCN(C)CC1` [Compound 99], the IC50 in assay [1] is 1.01 to 10 nM; in assay [2], 11 to 100 nM. The values for the pIC50 in assay [3] and in assay [4] were 5.00 to 6.00 and 6.00 to 7.00, respectively.
Turning to `COc1cc2ncnc(N3CCN(c4ncc(Cc5ccccc5)cn4)CC3)c2cc1OCC1CNCCO1` (stereo not shown) [Compound 105], the half-maximal inhibitory concentration (IC50) in assay [1] is < 1 nM; in assay [2] it was 11 to 100 nM. Also, the pIC50 was 6.00 to 7.00 in assay [3] and 7.00 to 8.00 in assay [4].
`COc1cc2ncnc(N3CCN(c4ncc(Cc5ccccc5)cn4)CC3)c2cc1OCCCN1CCN(C)CC1` [Compound 136]: the IC50 in assay [1] is < 1 nM; in assay [2], 11 to 100 nM. The pIC50 in assay [3] was 5.00 to 6.00; in assay [4] it was 6.00 to 7.00.
`COc1cc2ncnc(N3CCN(c4ncc(Cc5ccccc5)cn4)CC3)c2cc1OCC1CNC1` [Compound 79]: the figures for the IC50 in assay [1] and in assay [2] were 1.01 to 10 nM and 11 to 100 nM, respectively. The pIC50 was 5.00 to 6.00 in assay [3] and 7.00 to 8.00 in assay [4].
For `COc1cc2c(N3CCN(c4ncc(Cc5ccccc5)cn4)CC3)ncnc2cc1OCCCN1CCCCC1` [Compound 123], the 50% inhibitory concentration (IC50) in assay [1] was 10 to 100 nM; in assay [2], 100 to 1000 nM. Besides, the pIC50 in assay [3] and in assay [4] was 5.00 to 6.00 each time.
`COc1cc2c(N3CCN(c4ncc(Nc5ccc(C)cc5)cn4)CC3)ncnc2cc1OCCCN1CCCCC1` [Compound 137]: the IC50 in assay [1] lay in the range of 1.01 to 10 nM; in assay [2], 11 to 100 nM. Further, the figures for the pIC50 in assay [3] and in assay [4] were 5.00 to 6.00 and 6.00 to 7.00, respectively.
With `COc1cc2ncnc(N3CCN(c4ncc(Cc5ccccc5)cn4)CC3)c2cc1OCC1CCN(C)CC1` [Compound 112], the IC50 was < 1 nM in assay [1] and 11 to 100 nM in assay [2]. Further, the pIC50 was 5.00 to 6.00 in assay [3] and 7.00 to 8.00 in assay [4].
For `COc1cc2ncnc(N3CCN(c4ncc(Cc5ccccc5)c(O)n4)CC3)c2cc1OC` [Compound 35], the IC50 is < 1 nM in assay [1] and < 10 nM in assay [2]. Further, the pIC50 in assay [3] and in assay [4] was 6.00 to 7.00 in each case.
`COc1cc2c(N3CCN(c4ncc(Cc5ccccc5)cn4)CC3)ncnc2cc1OCCN1CCCC1=O` [Compound 111]: the IC50 in assay [1] was < 1 nM; in assay [2] it was 11 to 100 nM. In addition, the results for the pIC50 in assay [3] and in assay [4] were 5.00 to 6.00 and 6.00 to 7.00, respectively.
With `COc1cc2ncnc(N3CCN(c4ncc(Cc5ccc(C(F)(F)F)cc5)cn4)CC3)c2cc1OC` [Compound 88], the half-inhibitory concentration (IC50) in assay [1] lay in the range of 10 to 100 nM; in assay [2], 100 to 1000 nM. Moreover, the pIC50 in assay [3] is < 5.00.
On to `COc1cc2ncnc(N3CCN(c4ncc(Cc5ccccc5)c(=O)[nH]4)CC3)c2cc1OCC1CNCCO1` (stereo not shown) [Compound 119], for which the IC50 in assay [1] was < 1 nM; in assay [2] it was < 10 nM. The pIC50 was < 5.00 in assay [3] and 5.00 to 6.00 in assay [4].
`COc1cc2c(N3CCN(c4ncc(Br)cn4)CC3)ncnc2cc1OCCCN1CCCC1` [Compound 107]: the results for the half-inhibitory concentration (IC50) in assay [1] and in assay [2] were 10 to 100 nM and 100 to 1000 nM, respectively. Further, the pIC50 in assay [3] was 5.00 to 6.00.
Turning to `COc1ccc2ncnc(N3CCN(c4ncc(Cc5ccccc5)cn4)[C@H](C)C3)c2c1` [Compound 7], the IC50 in assay [1] fell in the range of 10 to 100 nM; in assay [2], 100 to 1000 nM. For the same compound, the pIC50 in assay [3] is 5.00 to 6.00.
Taken in the same sequence, the figures for `COc1cc2ncnc(N3CCN(c4ncc(Cc5ccc(C)cc5)cn4)C(=O)C3)c2cc1OC` [Compound 22] were 1.01 to 10 nM, 11 to 100 nM and 5.00 to 6.00.
On to `COc1cc2ncnc(N3CCN(c4ncc(Nc5ccc(F)cc5)cn4)CC3)c2cc1OC` [Compound 42], for which the IC50 lay within 1.01 to 10 nM in assay [1] and 100 to 1000 nM in assay [2]. Besides, the pIC50 in assay [3] was 5.00 to 6.00.
On to `COc1ccc2ncnc(N3CCN(c4ncc(Cc5ccccc5)cn4)CC3)c2c1` [Compound 5], for which the IC50 in assay [1] lay in the range of 10 to 100 nM; in assay [2] it was 100 to 1000 nM. Besides, in assay [3], the pIC50 was 5.00 to 6.00.
`COc1cc2ncnc(N3CCN(c4ncc(-c5ccc(C#N)cc5)cn4)CC3)c2cc1OC` [Compound 19]: in assay [1], the IC50 is > 100 nM and the “times more potent” value is reported as “less than 5 times”. The half-inhibitory concentration (IC50) in assay [2] was > 1000 nM.
As for `c1ccc(Cc2cnc(N3CCN(c4ncnc5c4CN(CC4CCNCC4)C5)CC3)nc2)cc1` [Compound 50], the figures for the 50% inhibitory concentration (IC50) in assay [1] and in assay [2] were > 100 nM and > 1000 nM, respectively. For the same compound, the “times more potent” value in assay [1] is reported as “less than 5 times”.
For the compound `COc1cc2ncnc(N3CCN(c4ncc(Cc5ccccc5)cn4)CC3)c2cc1OCC1CCN(CCO)CC1` [Compound 139], the IC50 in assay [1] was 1.01 to 10 nM; in assay [2] it was 11 to 100 nM.
As to `COc1cc2ncnc(N3CCN(c4ncc(Cc5ccccc5)cn4)CC3)c2cc1OCC1CCN(C)C1` (stereo not shown) [Compound 96], the IC50 in assay [1] was < 1 nM; in assay [2], 11 to 100 nM.
Take `COc1cc2ncnc(N3CCN(c4ncc(Cc5cccc(OC(F)(F)F)c5)cn4)CC3)c2cc1OC` [Compound 101]: the IC50 is 10 to 100 nM in assay [1] and 100 to 1000 nM in assay [2].
For the compound `COc1cc2ncnc(N3CCN(c4ncc(Nc5ccc(C#N)cc5)cn4)CC3)c2cc1OC` [Compound 47], in assay [1], the half-maximal inhibitory concentration (IC50) lay within 10 to 100 nM and the “times more potent” value is “at least 100 times”. Also, the IC50 in assay [2] was > 1000 nM.
For the compound `COc1cc2ncnc(N3CCN(c4ncc(Cc5ccccc5C)cn4)CC3)c2cc1OC` [Compound 25], the IC50 in assay [1] is 10 to 100 nM; in assay [2], 100 to 1000 nM.
Taken in the same sequence, the figures for `COc1cc2ncnc(N3CCN(c4ncc(Cc5ccccc5)cn4)CC3)c2cc1OC1CCNCC1` [Compound 91] were 1.01 to 10 nM and 11 to 100 nM.
Take `COc1cc2ncnc(N3CCN(c4ncc(Nc5ccccc5)cn4)[C@H](C)C3)c2cc1OC` [Compound 30]: the IC50 in assay [1] lay in the range of 1.01 to 10 nM; in assay [2] it was 100 to 1000 nM. In addition, the pIC50 in assay [3] was 5.00 to 6.00.
On to `COc1cc2ncnc(N3CCN(c4ncc(N5CCCc6ccccc65)cn4)CC3)c2cc1OC` [Compound 74], for which the 50% inhibitory concentration (IC50) in assay [1] is 10 to 100 nM; in assay [2], 100 to 1000 nM.
On the same counts, the results for `COc1cc2ncnc(N3CCN(c4ncc(N(C)Cc5ccccc5)cn4)CC3)c2cc1OC` [Compound 52] are 1.01 to 10 nM and 11 to 100 nM.
Regarding `COc1cc2ncnc(N3CCN(c4ncc(Cc5ccccc5)c(N)n4)CC3)c2cc1OC[C@@H]1CCCN(C)C1` [Compound 124], the results for the IC50 in assay [1] and in assay [2] were < 1 nM and < 10 nM, respectively.
Taken in the same sequence, the figures for `CN1CCC(COc2ccc3ncnc(N4CCN(c5ncc(Cc6ccccc6)c(=O)[nH]5)CC4)c3c2)CC1` [Compound 100] were 1.01 to 10 nM and 100 to 1000 nM.
Regarding `COc1cc2ncnc(N3CCN(c4ncc(Nc5ccc(C)cc5)cn4)CC3)c2cc1OC` [Compound 31], the half-maximal inhibitory concentration (IC50) in assay [1] lay within 1.01 to 10 nM; in assay [2], 100 to 1000 nM.
Take `COc1cc2ncnc(N3CCN(c4ncc(Cc5ccccc5)cn4)CC3)c2cc1C(N)=O` [Compound 20]: in assay [1], the IC50 was in the range of 10 to 100 nM and the “times more potent” value is listed as “at least 100 times”. For the same compound, in assay [2], the half-inhibitory concentration (IC50) is > 1000 nM.
For `COc1cc2ncnc(N3CCN(c4ncc(OCc5ccc(C(C)(C)C)cc5)cn4)CC3)c2cc1OC` [Compound 94], the half-maximal inhibitory concentration (IC50) in assay [1] was > 100 nM; in assay [2], > 1000 nM.
Taken in the same sequence, the figures for `COc1cc2ncnc(N3CCN(c4ncc(NCc5ccc(C)cc5)cn4)CC3)c2cc1OC` [Compound 53] were 10 to 100 nM and 100 to 1000 nM.
`COc1cc2ncnc(N3CCN(c4ncc(OCc5cccc(C)c5)cn4)CC3)c2cc1OC` [Compound 61]: the IC50 in assay [1] is 10 to 100 nM; in assay [2], 100 to 1000 nM.
Turning to `CCOc1cc2ncnc(N3CCN(c4ncc(Cc5ccccc5)c(=O)[nH]4)CC3)c2cc1OCC1CCN(C)CC1` [Compound 138], in assay [1], the half-inhibitory concentration (IC50) was < 1 nM and the “times more potent” value is on record as “less than 5 times”. In addition, the half-inhibitory concentration (IC50) in assay [2] is < 10 nM.

These data come from patent publication US9994552B2, “Compositions useful for treating disorders related to kit” (BLUEPRINT MEDICINES CORPORATION, priority 2013, dated 2018).
